# Patent US7691572B2, “Method and kit for detecting resistance to antiviral drugs” (priority 1998, dated 2010)
# Legend:
# HIV-1 RT = assay: Amp-RT assay, AZT-TP and other NRTI-TPs, reference viruses; assay type: biochemical; conditions: for % inhibition (SEM) / inhibition of RT activity / inhibition of activity: 1 μM AZT-TP; for inhibition of RT activity: ~1.882×10^−7 to ~1.882×10^−5 units of RT activity per ml
# [1] = test system: HIV-1 reverse transcriptase; assay: Amp-RT assay, inhibition by 3TC-TP, reference viruses; assay type: biochemical
# From the text: The phenotypic assay used in this example was based on the analysis of the susceptibility of HIV-1 reverse transcriptase activity from plasma to inhibition by 3TC-TP.
# The assay detects reverse transcriptase activity by using a nonretroviral heteropolymeric RNA template derived from the encephalomyocarditis virus (EMCV) genome, and a complementary EMCV-specific DNA oligoprimer. The RT-generated EMCV cDNA is detected by PCR amplification and internal oligoprobing of the PCR product with an EMCV-specific probe.
# Amp-RT detects reverse transcriptase activity by using a heterologous RNA template derived from the encephalomyocarditis virus (EMCV), a complementary DNA oligoprimer, and PCR amplification of reverse transcriptase-generated EMCV cDNA. […] To determine the susceptibility of the reverse transcriptase to 3TC-TP, an additional Amp-RT reaction was made in the presence of 3TC-TP, with concentrations of 3TC-TP ranging from 0.1 to 10 μM. […] PCR amplification of reverse transcriptase products was made as follows after the addition of 200 μM of each dNTP. A volume of 50 μl of PCR buffer containing 2.5 units of Taq polymerase, 100 ng of the sense primer EMCF1, and 200 μM of each dNTP was added to the reverse transcriptase mixture.
# Wild type HIV-1SUM9, and multiple dideoxy nucleoside-resistant HIV-1SUM8 (Q151M mutation), HIV-1SUM12 (F77L/F116Y/Q151M) and HIV-1SUM13 (A62V/V751/F77L/F116Y/Q151M) MICs were provided by Dr. Mitsuya as described by Shirasaka et al., Proc. Natl. Acad. Sci. USA 92: 2398-2402 (1995). The synthesis and preparation of 3TC-TP were carried out as described by Schinazi et al., Antimicrob. Agents Chemother. 36: 2423-2431 (1992). The crude 3TC-5-TP was purified by FPLC using a HiLoad 26/10Q Sepharose Fast Flow™ Pharmacia chromatography column (Pharmacia, Piscataway, N.J.) and gradient of TEAE buffer (pH 7.0). The compound was characterized by UV spectroscopy, proton and phosphorous NMR, mass spectroscopy and HPLC.
# Inhibition of reverse transcriptase by 3TC-TP results from the ability of 3TC-TP to act as a competitive inhibitor for 2′-deoxycytidine-5′-triphosphate (dCTP) and chain terminator as described by Arts and Wainberg, Antimicrob. Agents Chemother. 40: 527-540 (1996). To determine the optimal ratio of 3TC-TP and dCTP needed to inhibit wild type HIV-1 reverse transcriptase, but not 3TC-resistant reverse transcriptase, reverse transcriptase were tested from a wild type (xxBRUpitt) and a 3TC-resistant (M184Vpitt) HIV-1 in the presence of increasing concentrations of 3TC-TP (from 0.1 to 10 μM) and a fixed concentration of dCTP (5 μM).
# [2] = MNR HIV-1SUM12 (F77L, F116Y, Q151M)
# [3] = MNR HIV-1SUM13 (A62V, V75I, F77L, F116Y, Q151M)
# [4] = classical AZT-resistant HIV-1 R598 (D67N, V106A, L210W, L214F, T215Y)
# [5] = classical AZT-resistant HIV-1RTMC/MT2 (D67N, K70R, T215F, K219Q)
# [6] = 5 μM 3TC-TP, wild type HIV-1, 10^−6 units of RT activity
structure (smiles),measurement,setting,value
"Cc1cn([C@H]2C[C@H](N=[N+]=[N-])[C@@H](COP(=O)(O)OP(=O)(O)OP(=O)(O)O)O2)c(=O)[nH]c1=O [AZT-TP, AZT-triphosphate]",% inhibition (SEM),"HIV-1 RT; HIV-1LAI, WT",99.9 (±0.02) %
same,% inhibition (SEM),"HIV-1 RT; HIV-1M184Vpitt, M184V",91.1 (±3.3) %
same,% inhibition (SEM),"HIV-1 RT; HIV-1R598, D67N, V106A, L210W, L214F, T215Y",97.8 (±2.2) %
same,% inhibition (SEM),"HIV-1 RT; HIV-1RTMC/MT-2, D67N, K70R, T215F, K219Q",91.5 (±8.5) %
same,% inhibition (SEM),"HIV-1 RT; HIV-1RTMDRI/MT-2, M41L, L74V, V106A, T215Y",94.6 (±5.4) %
same,% inhibition (SEM),"HIV-1 RT; HIV-1RTMF/MT-2, T215Y",96 (±4) %
same,% inhibition (SEM),"HIV-1 RT; HIV-1SUM8, Q151M",26.6 (±6.1) %
same,inhibition of RT activity,HIV-1 RT; HIV-1SUM8,50%
same,% inhibition (SEM),"HIV-1 RT; HIV-1SUM9, WT",95.8 (±1.4) %
same,% inhibition (SEM),"HIV-1 RT; HIV-1SUM12, F77L, F116V, Q151M",13.1 (±5.5) %
same,inhibition of RT activity,HIV-1 RT; HIV-1SUM12 and HIV-1SUM13,< 15%
same,% inhibition (SEM),"HIV-1 RT; HIV-1SUM13, A62V, V75I, F77L, F116Y, Q151M",12.9 (±2.8) %
same,% inhibition (SEM),"HIV-1 RT; HIV-1xxBRUpitt, WT",93.5 (±6.5) %
same,inhibition of RT activity,HIV-1 RT; WT HIV-1SUM9,> 85%
same,inhibition of activity,HIV-1 RT; WT RT (HIV-1SUM9) alone,91%
same,inhibition of activity,HIV-1 RT; mixture containing 10% MNR HIV-1SUM13 in WT HIV-1SUM9,17%
same,inhibition of activity,HIV-1 RT; mixture containing 30% or more of MNR HIV-1,No inhibition
same,reduction of the level of DNA products,"HIV-1 RT; 1 μM AZT-triphosphate, MNR strains",≤ 30%
same,reduction of the amount of DNA products,"HIV-1 RT; 1 μM AZT-triphosphate, wild-type and classical reverse transcriptase mutant strains",≥ 90%
same,IC50,HIV-1 RT; MNR HIV-1SUM8 (Q151M),2.5 µM
same,IC90,HIV-1 RT; MNR HIV-1SUM8 (Q151M),4.5 µM
same,fold resistance (IC90) as compared to the mean IC values of WT HIV-1,HIV-1 RT; MNR HIV-1SUM8 (Q151M),(4.7) fold
same,IC50,HIV-1 RT; [2],11 µM
same,IC90,HIV-1 RT; [2],18 µM
same,fold resistance (IC90) as compared to the mean IC values of WT HIV-1,HIV-1 RT; [2],(18.6) fold
same,IC50,HIV-1 RT; [3],18 µM
same,IC90,HIV-1 RT; [3],45 µM
same,fold resistance (IC90) as compared to the mean IC values of WT HIV-1,HIV-1 RT; [3],(46.6) fold
same,IC50,HIV-1 RT; WT HIV-1LAI,0.5 µM
same,IC90,HIV-1 RT; WT HIV-1LAI,0.9 µM
same,IC50,HIV-1 RT; WT HIV-1SUM9,0.5 µM
same,IC90,HIV-1 RT; WT HIV-1SUM9,1 µM
same,IC50,HIV-1 RT; [4],0.5 µM
same,IC90,HIV-1 RT; [4],1 µM
same,IC50,HIV-1 RT; [5],0.5 µM
same,IC90,HIV-1 RT; [5],1 µM
"Nc1ccn([C@@H]2CS[C@H](COP(=O)(O)OP(=O)(O)OP(=O)(O)O)O2)c(=O)n1 [3TC-TP, 3TC-5′-triphosphate]",inhibition of reverse transcriptase,"[1]; 5 μM 3TC-TP, 3TC-resistant HIV-1 (M184Vpitt), high or low input of RT",No significant inhibition
same,inhibition of RT activity,"[1]; 5 μM 3TC-TP, mixture with 25% 3TC-resistant (M184Vpitt) virus in wild type xxBRUpitt",87%
same,inhibition of RT activity,"[1]; 5 μM 3TC-TP, mixture with 75% 3TC-resistant (M184Vpitt) virus in wild type xxBRUpitt",26%
same,drop in Amp-RT virus load,[1]; [6],2.35 log10
same,residual reverse transcriptase activity (of control without 3TC-TP),[1]; [6],0.4%
same,inhibition of reverse transcriptase,"[1]; 5 μM 3TC-TP, wild type xxBRUpitt, 10^−7 and 10^−8 units of RT activity",complete inhibition
same,IC90 relative to reference viruses,[1]; HIV-1SUM8 (Q151M),approximately two-fold higher
same,increase in IC50 compared to wild type virus,"[1]; HIV-1SUM12, three MD resistance mutations (F77L/F116Y/Q151M)",six-
same,increase in IC50 compared to wild type virus,"[1]; HIV-1SUM13, all five MD resistance mutations",eight-fold
same,IC50,HIV-1 RT; MNR HIV-1SUM8 (Q151M),0.9 µM
same,fold resistance (IC50) as compared to the mean IC values of WT HIV-1,HIV-1 RT; MNR HIV-1SUM8 (Q151M),(1.8) fold
same,IC50,HIV-1 RT; [2],2.7 µM
same,fold resistance (IC50) as compared to the mean IC values of WT HIV-1,HIV-1 RT; [2],(5.4) fold
same,IC50,HIV-1 RT; [3],3.3 µM
same,fold resistance (IC50) as compared to the mean IC values of WT HIV-1,HIV-1 RT; [3],(6.6) fold
same,IC50,HIV-1 RT; WT HIV-1SUM9,0.4 µM
same,IC50,HIV-1 RT; WT HIV-1xxBRUpitt,0.6 µM
